Experimental data: PMC7961048, “Hierarchized phosphotarget binding by the seven human 14-3-3 isoforms” (Nature Communications, 2021)
Starred links: 1 amine or outer side, 2 acyl side, 3 side chain; linkers in the order of their positions; H or OH if unused. Non-standard residues stand in square brackets, D forms with d. Residues, ends and D or L forms follow the SMILES beside them. *: point of attachment. X1 = O=C(CCCC[C@@H]1SC[C@@H]2NC(=O)N[C@@H]21)NCCCOCCOCCOCCCN*; pT = C[C@@H](OP(=O)(O)O)[C@H](N)C(=O)O; Suc = O=C(CCC(=O)[*:2])[*:1]

How the values were obtained:
Assay type in all cases: binding
14-3-3σ = biological target: T1, 14-3-3σ (Homo sapiens, UniProt P31947); assay: biochemical
T1 construct: cDNAs encoding other full-length 14-3-3 isoforms β, τ, η, and σ were obtained as codon-optimized; made in house; host or cells: E. coli BL21(DE3)
T1 sequence (P31947 1-248): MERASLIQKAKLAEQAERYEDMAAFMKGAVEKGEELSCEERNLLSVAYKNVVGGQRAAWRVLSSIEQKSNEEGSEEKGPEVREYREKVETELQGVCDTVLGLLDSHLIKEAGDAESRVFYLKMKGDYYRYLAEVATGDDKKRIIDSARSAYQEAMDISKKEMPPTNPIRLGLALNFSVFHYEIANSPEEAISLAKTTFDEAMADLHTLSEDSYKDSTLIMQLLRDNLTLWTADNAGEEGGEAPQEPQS
Method: (§1) The seven full-length human 14-3-3 isoforms, produced as fusions to a maltose-binding protein (MBP), were analyzed for their interaction with four phospho-PBMs from E6 proteins of HPV types 16, 18, 33, and 35 belonging to subgroups 1 and 2 (as defined in Supplementary Fig. 1). For comparison, we also measured two non-viral phospho-PBMs originating from protein kinase RSK1[28]. We used a competitive fluorescence polarization (FP) assay that measures the displacement of a fluorescent tracer phosphopeptide (here, derived from the HSPB6 protein) bound beforehand to 14-3-3, by an increasing amount of the peptide of interest.
(§2) For affinity measurements, full-length human 14-3-3 constructs with an N-terminal MBP fusion were used. Plasmids containing the cDNAs of the full-length 14-3-3 isoforms ε, γ, and ζ were received from Prof. Lawrence Banks. cDNAs encoding other full-length 14-3-3 isoforms β, τ, η, and σ were obtained as codon-optimized for E. coli expression synthetic genes from IDT Technologies (Coralville, Iowa, USA). All 14-3-3 isoforms were fused via a three-alanine linker to the C terminus of a mutant MBP carrying the following amino acid substitutions facilitating crystallization: D83A, K84A, K240A, E360A, K363A, and D364A[62]. All resulting clones were verified by sequencing. The MBP-fused proteins were expressed in E. coli BL21(DE3) with IPTG induction. Proteins were affinity purified on an amylose column and were further purified by ion-exchange chromatography (HiTrap Q HP, GE Healthcare). Unfused 14-3-3 isoforms devoid of the flexible C-terminal tails (14-3-3βΔC, 14-3-3τΔC 14-3-3εΔC) were expressed using IPTG induction and purified by subtractive IMAC and SEC[40]. Protein concentrations were determined by UV spectroscopy. The samples were supplemented with glycerol and TCEP before aliquoting and freezing in liquid nitrogen.
(§3) Unless otherwise stated, all phosphopeptide-binding measurements were performed using full-length 14-3-3 proteins fused to the C terminus of MBP, favoring optimal solubility and a standardized parallel purification scheme.
(§4) FP was measured with a PHERAstar (BMG Labtech, Offenburg, Germany) microplate reader by using 485 ± 20 and 528 ± 20 nm band-pass filters (for excitation and emission, respectively). In direct FP measurements, a dilution series of the 14-3-3 protein was prepared in 96-well plates (96-well skirted PCR plate, 4ti-0740, 4titude, Wotton, UK) in a 20 mM HEPES pH 7.5 buffer containing 150 mM NaCl, 0.5 mM TCEP, 0.01% Tween 20, 50 nM fluorescently labeled fpB6 peptide, and 100 μM FSC, if indicated. The volume of the dilution series was 40 μl, which was later divided into three technical replicates of 10 μl upon transferring to 384-well micro-plates (low binding microplate, 384 well, E18063G5, Greiner Bio-One, Kremsmünster, Austria). In total, polarization of the probe was measured at eight different protein concentrations (whereas one contained no protein and corresponded to the free peptide). In competitive FP measurements, the same buffer was supplemented with the protein to achieve a complex formation of 60–80%, based on the direct titration. Then, this mixture was used for creating a dilution series of the unlabeled competitor (i.e., the studied peptides) and the measurement was carried out identically as in the direct experiment.
(§5) All FP experiments were done in triplicates. Analysis of FP experiments were carried out using ProFit, an in-house developed, Python-based fitting program. ProFit utilizes a Monte Carlo approach to take into account experimental variability. It generates hundreds of simulated datasets, based on the experimental data variance and fits direct and competitive measurements in pairs.

14-3-3τ = biological target: T2, 14-3-3τ (Homo sapiens, UniProt P27348); assay: biochemical
T2 construct: cDNAs encoding other full-length 14-3-3 isoforms β, τ, η, and σ were obtained as codon-optimized; made in house; host or cells: E. coli BL21(DE3)
T2 sequence (P27348 1-245): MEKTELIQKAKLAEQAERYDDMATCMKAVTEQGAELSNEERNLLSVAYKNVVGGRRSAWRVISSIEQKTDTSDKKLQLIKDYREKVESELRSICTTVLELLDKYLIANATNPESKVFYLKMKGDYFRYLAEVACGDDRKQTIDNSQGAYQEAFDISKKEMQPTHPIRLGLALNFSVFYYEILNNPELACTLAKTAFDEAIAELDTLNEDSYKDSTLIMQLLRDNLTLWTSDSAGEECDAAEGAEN
Method: as §1, §2, §3, §4, §5

[1] = biological target: seven human 14-3-3 isoforms; assay: Affinities averaged or compared across the 14-3-3 family (ΔΔGav, KD ratios, affinity maps); details: for KD ratios, compared to LRRK2 pS910/pS935, 14-3-3β / KD ratios, compared to LRRK2 pS910/pS935, 14-3-3γ / KD ratios, compared to LRRK2 pS910/pS935, 14-3-3ζ / KD ratios, compared to LRRK2 pS910/pS935, 14-3-3η / KD ratios, compared to LRRK2 pS910/pS935, 14-3-3τ / KD ratios, compared to LRRK2 pS910/pS935, average / KD ratios, compared to LRRK2 pS910/pS935, 14-3-3ε / KD ratios, compared to LRRK2 pS910/pS935, 14-3-3σ: Figure 4 panel b; for KD ratios, compared to LRRK2 pS910/pS935, average: average over the isoforms; for KD ratios, compared to 14-3-3γ, 14-3-3β / KD ratios, compared to 14-3-3γ, 14-3-3γ / KD ratios, compared to 14-3-3γ, 14-3-3ζ / KD ratios, compared to 14-3-3γ, 14-3-3η / KD ratios, compared to 14-3-3γ, 14-3-3τ / KD ratios, compared to 14-3-3γ, 14-3-3ε / KD ratios, compared to 14-3-3γ, 14-3-3σ: Figure 4 panel c; for binding to 14-3-3 proteins: competitive FP, seven MBP-fused full-length 14-3-3 isoforms, result in words
Source text: Former studies have measured the binding of the seven human 14-3-3 isoforms to unrelated phospho-motifs derived from Cystic Fibrosis Transmembrane Conductance Regulator (CFTR), Leucine-Rich Repeat Kinase 2 (LRRK2), Potassium channel subfamily K members (TASK1/3), C-Raf, the p65 subunit of the NF-κB transcription factor, and from Ubiquitin carboxyl-terminal hydrolase 8 (USP8), representing a wide variety of different 14-3-3-binding motifs, including C-terminal, internal, monovalent, or divalent motifs[40],[44]–[48].
(gray background). The color scale is either based on affinity values or on KD ratios. √ denotes affinities weaker than the limit of quantitation of the experimental assays. b Same map as in a, normalized to the strongest 14-3-3-binding motif. […] Source data are provided as a Source Data file.
All binding data and the obtained fits are provided as Supplementary Data File 1.

[2] = Figure 4 panel a, unit from the colour scale line, motifs measured in this work

Compound | Kd (14-3-3σ) | Kd (14-3-3τ) | KD ratios, compared to LRRK2 pS910/pS935, 14-3-3β [1] | KD ratios, compared to LRRK2 pS910/pS935, 14-3-3γ [1] | KD ratios, compared to LRRK2 pS910/pS935, 14-3-3ζ [1] | KD ratios, compared to LRRK2 pS910/pS935, 14-3-3η [1] | KD ratios, compared to LRRK2 pS910/pS935, 14-3-3τ [1] | KD ratios, compared to LRRK2 pS910/pS935, average [1] | KD ratios, compared to 14-3-3γ, 14-3-3β [1] | KD ratios, compared to 14-3-3γ, 14-3-3γ [1] | KD ratios, compared to 14-3-3γ, 14-3-3ζ [1] | KD ratios, compared to 14-3-3γ, 14-3-3η [1] | KD ratios, compared to 14-3-3γ, 14-3-3τ [1] | binding to 14-3-3 proteins [1] | KD ratios, compared to LRRK2 pS910/pS935, 14-3-3ε [1] | KD ratios, compared to LRRK2 pS910/pS935, 14-3-3σ [1] | KD ratios, compared to 14-3-3γ, 14-3-3ε [1] | KD ratios, compared to 14-3-3γ, 14-3-3σ [1] | also measured
CC(C)C[C@H](NC(=O)[C@H](CCC(N)=O)NC(=O)[C@@H](NC(=O)[C@H](CCC(=O)O)NC(=O)[C@H](CCCNC(=N)N)NC(=O)[C@H](CCCNC(=N)N)NC(=O)[C@@H](NC(=O)[C@H](CCCNC(=N)N)NC(=O)[C@H](CO)NC(=O)[C@H](CO)NC(=O)CCC(=O)NCCCOCCOCCOCCCNC(=O)CCCC[C@@H]1SC[C@@H]2NC(=O)N[C@@H]21)[C@@H](C)O)[C@@H](C)OP(=O)(O)O)C(=O)O [pHPV16E6] | > 300 µM | 144 ± 28 µM | 7536 | 11625 | 15333 | 16771 | 15158 | 13000 | 4.27 | 1.00 | 1.98 | 2.16 | 3.87 | detectably bound | – | – | – | – | Binding affinities (KD) of various 14-3-3-binding motifs, 14-3-3σ (14-3-3σ; [2]): √; Binding affinities (KD) of various 14-3-3-binding motifs, 14-3-3τ (14-3-3τ; [2]): 144 µM
CC(C)C[C@H](NC(=O)[C@H](CCCNC(=N)N)NC(=O)CCC(=O)NCCCOCCOCCOCCCNC(=O)CCCC[C@@H]1SC[C@@H]2NC(=O)N[C@@H]21)C(=O)N[C@@H](CCC(N)=O)C(=O)N[C@@H](CCCNC(=N)N)C(=O)N[C@@H](CCCNC(=N)N)C(=O)N[C@@H](CCCNC(=N)N)C(=O)N[C@@H](CCC(=O)O)C(=O)N[C@H](C(=O)N[C@@H](CCC(N)=O)C(=O)N[C@H](C(=O)O)C(C)C)[C@@H](C)OP(=O)(O)O [pHPV18E6] | 139 ± 24 µM | 37.8 ± 6 µM | 2000.00 | 3437.50 | 4666.67 | 4916.67 | 3978.95 | 4200.00 | 3.84 | 1.00 | 2.04 | 2.15 | 3.44 | detectably bound | 8145.16 | 2293.73 | 9.18 | 12.64 | –
CC(C)C[C@H](NC(=O)[C@H](C)NC(=O)[C@@H](NC(=O)[C@H](CCC(=O)O)NC(=O)[C@H](CCCNC(=N)N)NC(=O)[C@H](CCCNC(=N)N)NC(=O)[C@H](CCCNC(=N)N)NC(=O)[C@H](CO)NC(=O)[C@H](CCCNC(=N)N)NC(=O)[C@H](CO)NC(=O)CCC(=O)NCCCOCCOCCOCCCNC(=O)CCCC[C@@H]1SC[C@@H]2NC(=O)N[C@@H]21)[C@@H](C)OP(=O)(O)O)C(=O)O [pHPV33E6] ({X1-Suc}-SRSRRRE[pT]AL-OH) | 6.77 µM | 3.52 µM | 191.94 | 293.75 | 566.67 | 412.50 | 370.53 | 400.00 | 4.31 | 1.00 | 2.89 | 2.11 | 3.74 | detectably bound | 830.65 | 111.72 | 10.96 | 7.20 | ΔΔGav (average 14-3-3 binding free energy difference) relative to p35E6 ([1]; averaged over 14-3-3 isoforms, 295 K): –10.9 ± 0.7 kJ/mol; KD ratio relative to p35E6 ([1]; corresponds to ΔΔGav averaged over 14-3-3 isoforms): ~100 fold
CC(C)[C@H](NC(=O)[C@H](C)NC(=O)[C@@H](NC(=O)[C@H](CCC(=O)O)NC(=O)[C@H](CCCNC(=N)N)NC(=O)[C@H](CCCNC(=N)N)NC(=O)[C@@H](NC(=O)[C@@H]1CCCN1C(=O)[C@H](CCCCN)NC(=O)[C@H](CO)NC(=O)CCC(=O)NCCCOCCOCCOCCCNC(=O)CCCC[C@@H]1SC[C@@H]2NC(=O)N[C@@H]21)[C@@H](C)O)[C@@H](C)OP(=O)(O)O)C(=O)O [pHPV35E6E-1A] ({X1-Suc}-SKPTRRE[pT]AV-OH) | 44.1 µM | 21.5 µM | 957.35 | 2909.38 | 3666.67 | 2583.33 | 2263.16 | 2200.00 | 2.17 | 1.00 | 1.89 | 1.33 | 2.31 | – | 2572.58 | 727.72 | 3.43 | 4.74 | –
